Measurements as given in the Kinase Knowledgebase extract (Sharma et al. 2016).

What follows are compounds tested against EGFR (UniProt P00533) (assay: EGFR Kinase Inhibition). Settings: not given.
Sequence of EGFR (P00533 whole entry, looked up): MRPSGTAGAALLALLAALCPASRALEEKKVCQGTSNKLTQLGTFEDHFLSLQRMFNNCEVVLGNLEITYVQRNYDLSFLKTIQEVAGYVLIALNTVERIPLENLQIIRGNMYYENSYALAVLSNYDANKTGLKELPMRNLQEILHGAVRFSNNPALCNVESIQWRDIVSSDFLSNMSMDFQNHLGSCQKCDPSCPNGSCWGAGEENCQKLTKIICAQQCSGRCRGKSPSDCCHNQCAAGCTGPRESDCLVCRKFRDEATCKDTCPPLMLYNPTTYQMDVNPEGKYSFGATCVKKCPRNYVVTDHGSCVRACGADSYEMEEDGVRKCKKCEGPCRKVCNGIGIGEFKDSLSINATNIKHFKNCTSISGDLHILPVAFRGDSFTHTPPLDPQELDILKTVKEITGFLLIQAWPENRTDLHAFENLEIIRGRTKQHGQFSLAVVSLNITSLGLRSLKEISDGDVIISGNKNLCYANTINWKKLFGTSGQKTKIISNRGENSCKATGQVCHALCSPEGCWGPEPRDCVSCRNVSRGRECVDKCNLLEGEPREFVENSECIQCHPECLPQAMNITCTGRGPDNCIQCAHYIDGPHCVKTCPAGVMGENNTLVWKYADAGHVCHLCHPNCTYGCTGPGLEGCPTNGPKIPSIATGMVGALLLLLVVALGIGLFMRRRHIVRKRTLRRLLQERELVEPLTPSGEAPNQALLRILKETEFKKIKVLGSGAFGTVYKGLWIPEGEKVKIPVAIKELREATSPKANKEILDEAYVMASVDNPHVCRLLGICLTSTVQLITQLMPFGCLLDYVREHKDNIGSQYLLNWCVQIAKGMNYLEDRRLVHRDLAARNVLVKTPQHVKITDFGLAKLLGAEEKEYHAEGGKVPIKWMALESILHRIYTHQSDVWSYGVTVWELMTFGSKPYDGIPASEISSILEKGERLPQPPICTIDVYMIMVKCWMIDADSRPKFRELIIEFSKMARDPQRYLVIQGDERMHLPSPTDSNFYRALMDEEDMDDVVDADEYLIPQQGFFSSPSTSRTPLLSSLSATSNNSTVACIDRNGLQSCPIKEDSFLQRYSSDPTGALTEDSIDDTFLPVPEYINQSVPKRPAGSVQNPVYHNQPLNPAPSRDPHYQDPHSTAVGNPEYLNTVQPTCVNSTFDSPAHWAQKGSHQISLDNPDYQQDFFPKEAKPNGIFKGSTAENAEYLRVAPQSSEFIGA

Row | Compound | IC50 [nM]
1 | CC(C)[C@@H](NC1=C(CC2CCCC3CCCCC32)C(=O)C(O)=CC1=O)C(=O)O (some centres not stated) | > 100000
2 | CN1CCN(CCCCCNc2ncc3cc(-c4c(Cl)cccc4Cl)c(=O)n(C)c3n2)CC1 | 4500
3 | C[C@@H](O)[C@@H](NC1=CC(=O)C(N[C@@H](C(=O)O)[C@@H](C)O)=CC1=O)C(=O)O | 44000
4 | Cn1c(=O)c(-c2c(Cl)cccc2Cl)cc2cnc(NCCCCCC(=O)O)nc21 | 1000
5 | COc1ccc(Nc2ncc3cc(-c4c(Cl)cccc4Cl)c(=O)n(C)c3n2)cn1 | 1300

These compounds were tested against MAPK14 (UniProt Q16539) (assay: p38-alpha Kinase Inhibition). Settings: not given.
Sequence of MAPK14 (Q16539 whole entry, looked up): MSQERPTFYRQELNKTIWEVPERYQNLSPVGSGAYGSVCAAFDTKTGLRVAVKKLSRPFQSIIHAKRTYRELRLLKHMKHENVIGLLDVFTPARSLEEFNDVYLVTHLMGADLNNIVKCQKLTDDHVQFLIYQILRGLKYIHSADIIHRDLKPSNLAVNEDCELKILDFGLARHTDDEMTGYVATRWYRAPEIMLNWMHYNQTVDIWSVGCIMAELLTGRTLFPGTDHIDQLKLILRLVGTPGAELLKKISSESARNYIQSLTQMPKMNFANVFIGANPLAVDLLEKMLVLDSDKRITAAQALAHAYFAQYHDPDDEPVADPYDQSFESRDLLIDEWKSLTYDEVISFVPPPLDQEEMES

Row | Compound | IC50 [nM]
6 | O=C(c1ccc2[nH]c3c(c2c1)CCNC3)N1CCC(Cc2ccccc2)CC1 | 330
7 | O=C(c1ccc2[nH]c3c(c2c1)CCNC3)N1CCC(Cc2ccc(F)cc2)CC1 | 243
8 | COc1c(C(=O)N2CCC(Cc3ccc(F)cc3)CC2)ccc2[nH]c3c(c12)CCNC3 | 242

These compounds were tested against MAPK14 (human) (UniProt Q16539) (assay: Inhibition of MAPK14 Kinase Activity). Settings: not given.
Sequence of MAPK14 (human) (Q16539 whole entry, looked up): as above

Row | Compound | IC50 [nM]
9 | CCC(C)N(C)c1nc(Nc2cc(C(N)=O)ccc2C)nc(N[C@H]2CCNC2)n1 (some centres not stated) | 28
10 | Cc1ccc(C(N)=O)cc1Nc1nc(N[C@H]2CCNC2)nc(N(C)C2CCCCC2)n1 | 250

What follows are compounds tested against MAPK14 (human) (UniProt Q16539) (assay: Inhibition of LPS Induced TNF-alpha Production in THP-1 Cells). Settings: thp1.

Row | Compound | IC50 [nM]
11 | CCC(C)N(C)c1nc(Nc2cc(C(N)=O)ccc2C)nc(N[C@H]2CCNC2)n1 (some centres not stated) | 325
12 | COC(=O)c1ccc(C)c(Nc2nc(N[C@H]3CCNC3)nc(N(C)CC(C)(C)C)n2)c1 | > 250
13 | Cc1ccc(C(N)=O)cc1Nc1nc(NCCc2ccc(F)cc2)nc(N[C@H]2CCNC2)n1 | > 5000
14 | Cc1ccc(C(N)=O)cc1Nc1nc(NCC(C)C)nc(N[C@H]2CCNC2)n1 | > 5000
15 | Cc1ccc(C(N)=O)cc1Nc1nc(N[C@H]2CCNC2)nc(N(C)C2CCCCC2)n1 | 1300

These compounds were tested against MAPK14 (human) (UniProt Q16539) (assay: Inhibition of LPS-stimulated TNF-alpha Production in Human Monocytic Cells). Settings: thp.1 monocytic.

Row | Compound | IC50 [nM]
16 | CCOCn1nnc(-c2ccncc2)c1-c1ccc(F)cc1 | 490
17 | CC[C@H](C)Nc1nccc(-c2nn3c(c2-c2ccc(F)cc2)OCC3)n1 | 80
18 | COC[C@H](C)Nc1nccc(-c2nn3c(c2-c2ccc(F)cc2)OCC3)n1 | 1700
19 | C[C@H](Nc1nccc(-c2nn3c(c2-c2ccc(F)cc2)OCC3)n1)c1ccccc1 | > 2000
20 | Fc1ccc(-c2c(-c3ccnc(Oc4ccccc4)n3)nn3c2OCCC3)cc1 | > 10000

Each compound was assayed against PIK3CG (UniProt P48736) (assay: Inhibition of PIK3CG Kinase Activity). Settings: not given.

Row | Compound | IC50 [nM]
21 | N#CN=C1NC(=O)/C(=C/c2ccc3nccnc3c2)S1 | < 1000
22 | O=C1NC(=NCc2ccccc2)S/C1=C\c1ccc2c(c1)OCO2 | < 1500
23 | CN=C1NC(=O)/C(=C/c2ccc3ncnc(N(C)C)c3c2)S1 | < 1000
24 | COC(=O)c1sccc1S(=O)(=O)N=C1NC(=O)/C(=C/c2ccc3ncccc3c2)S1 | < 1000
25 | CON=C1NC(=O)/C(=C/c2ccc3c(c2)OCO3)S1 | < 1000

These compounds were tested against PIK3CG;PIK3CA (human) (UniProt P48736) (assay: Antiproliferation of PC3-MM2 Cells). Settings: pc-3.

Row | Compound | IC50 [nM]
26 | COc1ccc2c(c1)c(/C=C1\Oc3cc(O)ccc3C1=O)c1n2CCC1 | 3400
27 | COc1ccc2c(c1)c(/C=C1\Oc3cc(O)ccc3C1=O)c1n2CCNC1 | 1510
28 | COc1ccc2c(c1)c(/C=C1\Oc3cc(O)cc(O)c3C1=O)c1n2CCN(C)C1=O | 5050
29 | COc1ccc2c(c1)c(/C=C1\Oc3cc(O)cc(O)c3C1=O)c1n2CCOC1 | 1910
30 | COc1ccc2c(c1)c(/C=C1\Oc3cc(O)cc(O)c3C1=O)c1n2CCOC1=O | 5630

The compounds below were run against EGFR (UniProt P00533) (assay: not given). Settings: cho.ir.

Row | Compound | EC50 [nM]
31 | O=C1C(O)=C(c2c[nH]c3ccccc23)C(=O)C(O)=C1c1ccccc1 | 20000
32 | C=CC(C)(C)c1[nH]c2ccccc2c1C1=C(O)C(=O)C(c2c[nH]c3c(CC=C(C)C)cccc23)=C(O)C1=O | 15000
33 | Cc1cccc2c(C3=C(O)C(=O)C(c4c[nH]c5ccccc45)=C(O)C3=O)c[nH]c12 | 25000

Same assay, conditions: cho.ir, concentration not given here

Row | Compound | activation [%]
34 | O=C1C(O)=C(c2coc3ccccc23)C(=O)C(O)=C1c1ccccc1 | < 5
35 | Cn1cc(C2=C(O)C(=O)C(c3ccccc3)=C(O)C2=O)c2ccccc21 | < 5
36 | COc1ccc(C2=C(O)C(=O)C(c3ccccc3)=C(O)C2=O)cc1 | < 5
37 | O=C1C(O)=C(c2csc3ccccc23)C(=O)C(O)=C1c1ccccc1 | < 5

Each compound was assayed against EGFR (UniProt P00533) (assay: not given). Settings: not given.

Row | Compound | IC50 [nM]
38 | Nc1cc2c(Nc3cccc(Br)c3)ncnc2cn1 | 0.13
39 | COc1cc2c(Nc3cccc(Br)c3)ncnc2cn1 | 0.0026
40 | CN(C)c1cc2c(Nc3cccc(Br)c3)ncnc2cn1 | 0.006
41 | Nc1ccc2ncnc(Nc3cccc(Br)c3)c2n1 | 7.6
42 | CNc1cc2c(Nc3cccc(Br)c3)ncnc2cn1 | 0.008
43 | COc1ccc2ncnc(Nc3cccc(Br)c3)c2c1 | 30

The compounds below were run against EGFR (mouse) (UniProt P00533) (assay: not given). Settings: not given.

Row | Compound | ID50 [nM]
44 | CC(C)[C@H]1C(=O)N[C@H](CO)Cc2c[nH]c3cccc(c23)N1C | 1110
45 | CCCCC[C@@H](Cc1ccc2c3c(c[nH]c13)C[C@@H](CO)NC(=O)[C@H](C(C)C)N2C)NC(=O)c1ccc(N=[N+]=[N-])cc1 | 71
46 | CCCCC[C@H](Cc1ccc2c3c(c[nH]c13)C[C@@H](CO)NC(=O)[C@H](C(C)C)N2C)NC(=O)c1ccc(N=[N+]=[N-])cc1 | 89
47 | CC(C)[C@H]1C(=O)N[C@H](CO)Cc2c[nH]c3c(CCNC(=O)c4ccc(N=[N+]=[N-])cc4)ccc(c23)N1C | 1320
48 | CCCCCCCCCCCC(=O)O[C@@H]1[C@@H](C)[C@@]2(O)[C@@H](C=C(CO)C[C@]3(O)C(=O)C(C)=C[C@@H]23)[C@@H]2C(C)(C)[C@]12OC(C)=O | 1.33
49 | CC[C@@](C)(CCCC(C)(C)SCCNC(=O)c1ccc(N=[N+]=[N-])cc1)c1ccc2c3c(c[nH]c13)C[C@@H](CO)NC(=O)[C@H](C(C)C)N2C | 4.4
50 | C=C[C@@]1(C)CC[C@](C)(C(C)C)c2cc3c4c(c[nH]c4c21)C[C@@H](CO)NC(=O)[C@H](C(C)C)N3C | 2.23

What follows are compounds tested against EGFR (Hamster) (UniProt P00533) (assay: not given). Settings: not given.

Row | Compound | IC50 [nM]
51 | O=C(O)c1cc(N=Cc2ccccc2O)ccc1O | > 100000
52 | COC(=O)c1cc(N=Cc2ccccc2O)ccc1O | > 100000
53 | COC(=O)c1cc(N=Cc2cc(OC)ccc2OC)ccc1O | > 10000
54 | COC(=O)c1cc(N=Cc2cccc(O)c2)ccc1O | > 100000
55 | O=C(O)c1cccc(N=Cc2cc(O)ccc2O)c1 | > 10000
56 | COC(=O)c1cc(N=Cc2ccc(O)cc2O)ccc1O | > 100000
57 | COC(=O)c1cc(NCc2cc(OC)ccc2OC)ccc1O | > 100000

The compounds below were run against MAPK14 (UniProt Q16539) (assay: not given). Settings: not given.

Row | Compound | inhibition [µM]
58 | Fc1ccc(Oc2cc(-c3c(-c4ccc(F)cc4)ncn3C3CCNCC3)ccn2)cc1 | < 50
59 | COc1ccc(Oc2cc(-c3c(-c4ccc(F)cc4)ncn3C3CCNCC3)ccn2)cc1 | < 50
60 | Cn1nnnc1Sc1cc(-c2c(-c3ccc(F)cc3)ncn2C2CCNCC2)ccn1 | < 50
61 | Fc1ccc(Oc2nccc(-c3c(-c4ccc(F)cc4)ncn3CCCN3CCOCC3)n2)cc1 | < 50
62 | Fc1ccc(-c2ncn(C3CCNCC3)c2-c2ccnc(Oc3ccccc3)c2)cc1 | < 50
63 | Fc1ccc(-c2ncn(C3CCNCC3)c2-c2ccnc(Sc3ccccc3)c2)cc1 | < 50

What follows are compounds tested against EGFR (murine) (UniProt P00533) (assay: not given). Settings: nih3t3.
Sequence of EGFR (murine) (P00533 whole entry, looked up): as the sequence (P00533 whole entry, looked up) above

Row | Compound | IC50 [nM]
64 | c1ccc(Nc2ccc3ncc(-c4ccccc4)nc3n2)cc1 | > 50000
65 | Fc1ccc(CNc2ccc3nc(-c4ccccc4)c(-c4ccccc4)nc3n2)cc1 | > 100000
66 | COc1ccc2nc(C)c(-c3ccccc3)nc2n1 | > 100000
67 | COc1ccc2nc(-c3ccccc3)c(-c3ccccc3)nc2n1 | > 100000
68 | Oc1ccc(-c2cnc3ccc(NCc4ccccc4)nc3n2)cc1 | > 50000
69 | Cc1nc2ccc(NCc3ccc(F)cc3)nc2nc1-c1ccccc1 | > 100000

Target: EGFR (UniProt P00533)
Assay: not given
Settings: not given
Remark: another data set of the same source

Row | Compound | IC50 [nM]
70 | CN(C)CCCn1nc(C2=C(c3cn(-c4cccc5ccccc45)c4ccccc34)C(=O)NC2=O)c2ccccc21 | > 10000
71 | CN(C)CCCn1nc(C2=C(c3cn(-c4cccs4)c4ccccc34)C(=O)NC2=O)c2ccccc21 | > 10000
72 | CN(C)CCCn1nc(C2=C(c3cn(-c4csc5ccccc45)c4ccccc34)C(=O)NC2=O)c2ccccc21 | > 10000
73 | CN(C)CCCn1nc(C2=C(c3cn(-c4cccnc4)c4ccccc34)C(=O)NC2=O)c2ccccc21 | > 10000
74 | CN(C)CCCn1nc(C2=C(c3cn(-c4ccc5ccccc5c4)c4ccccc34)C(=O)NC2=O)c2ccccc21 | > 10000
75 | CN(C)CCCn1nc(C2=C(c3cn(-c4cnc5ccccc5c4)c4ccccc34)C(=O)NC2=O)c2ccccc21 | > 10000

Target: EGFR (UniProt P00533)
Assay: not given
Settings: not given
Remark: another data set of the same source

Row | Compound | IC50 [nM]
76 | O=C(Nc1ccc(Br)cc1)Nc1ncnc2nn3ccccc3c12 | > 10000
77 | O=C(Nc1ccc(C(F)(F)F)cc1)Nc1ncnc2nn3ccccc3c12 | > 10000
78 | O=C(Nc1cccc([N+](=O)[O-])c1)Nc1ncnc2nn3ccccc3c12 | > 10000
79 | O=C(Nc1ccc(F)cc1)Nc1ncnc2nn3ccccc3c12 | > 10000
80 | N#Cc1cccc(NC(=O)Nc2ncnc3nn4ccccc4c23)c1 | > 10000
81 | O=C(Nc1cccc(C(F)(F)F)c1)Nc1ncnc2nn3ccccc3c12 | > 10000

These compounds were tested against EGFR (UniProt P00533) (assay: not given). Settings: concentration not given here.

Row | Compound | inhibition [%]
82 | NN=C1CCc2c(sc(NC(=O)C3CC3)c2C(N)=O)C1 | > 50
83 | NC(=O)c1c(NC(=O)C2CC2)sc2c1CCC(Br)(Br)C2=O | > 50
84 | NC(=O)c1c(NC(=O)Nc2ccc(F)cc2)sc2c1CCC(=O)C2 | > 50
85 | CC1CC1C(=O)Nc1sc2c(Cl)c(O)ccc2c1C(N)=O (configuration not stated) | > 50
86 | NC(=O)c1c(NC(=O)C2CC2)sc2c(O)c(Br)ccc12 | > 50

These compounds were tested against ROCK2 (human) (UniProt O75116) (assay: not given). Settings: not given.
Sequence of ROCK2 (human) (O75116 whole entry, looked up): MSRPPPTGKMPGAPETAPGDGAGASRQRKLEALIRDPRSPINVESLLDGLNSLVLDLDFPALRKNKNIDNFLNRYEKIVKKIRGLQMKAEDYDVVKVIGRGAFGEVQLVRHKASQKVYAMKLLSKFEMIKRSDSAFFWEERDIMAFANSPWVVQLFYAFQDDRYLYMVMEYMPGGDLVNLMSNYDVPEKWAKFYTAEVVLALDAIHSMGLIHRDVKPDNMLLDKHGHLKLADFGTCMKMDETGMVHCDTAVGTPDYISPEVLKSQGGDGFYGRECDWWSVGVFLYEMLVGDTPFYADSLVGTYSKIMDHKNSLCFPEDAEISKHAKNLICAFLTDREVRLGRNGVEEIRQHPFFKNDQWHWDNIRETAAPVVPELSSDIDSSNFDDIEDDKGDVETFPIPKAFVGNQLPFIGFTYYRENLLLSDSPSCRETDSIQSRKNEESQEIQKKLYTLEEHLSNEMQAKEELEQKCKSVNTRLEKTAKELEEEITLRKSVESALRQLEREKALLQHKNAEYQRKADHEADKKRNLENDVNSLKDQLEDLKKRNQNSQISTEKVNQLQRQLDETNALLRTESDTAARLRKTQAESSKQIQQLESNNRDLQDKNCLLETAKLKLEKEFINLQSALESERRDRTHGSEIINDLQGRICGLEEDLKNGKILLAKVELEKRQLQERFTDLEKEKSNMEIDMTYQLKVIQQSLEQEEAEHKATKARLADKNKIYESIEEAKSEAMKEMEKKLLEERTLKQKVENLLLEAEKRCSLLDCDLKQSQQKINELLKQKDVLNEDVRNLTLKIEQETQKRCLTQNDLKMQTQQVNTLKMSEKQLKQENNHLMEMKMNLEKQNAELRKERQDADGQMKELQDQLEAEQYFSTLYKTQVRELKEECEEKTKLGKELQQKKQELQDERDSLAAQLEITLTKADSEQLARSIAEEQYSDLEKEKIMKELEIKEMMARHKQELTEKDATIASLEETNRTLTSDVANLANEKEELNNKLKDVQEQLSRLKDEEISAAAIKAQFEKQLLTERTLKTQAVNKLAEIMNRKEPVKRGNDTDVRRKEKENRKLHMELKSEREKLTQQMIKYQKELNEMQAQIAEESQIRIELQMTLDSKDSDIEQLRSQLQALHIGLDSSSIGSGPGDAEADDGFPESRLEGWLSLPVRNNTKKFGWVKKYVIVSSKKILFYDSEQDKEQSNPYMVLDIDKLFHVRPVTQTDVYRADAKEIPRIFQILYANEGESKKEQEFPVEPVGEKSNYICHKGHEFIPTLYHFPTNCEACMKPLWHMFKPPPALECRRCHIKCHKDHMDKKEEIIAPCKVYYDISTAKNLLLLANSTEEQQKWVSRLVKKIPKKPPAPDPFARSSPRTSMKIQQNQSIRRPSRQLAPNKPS

Row | Compound | IC50 [nM]
87 | CCN1Cc2ccc(OC)cc2C[C@@H]1C(=O)Nc1ccc(-c2cn[nH]c2)cc1OCCN(C)C | 9
88 | COc1ccc2c(c1)CN[C@@H](C(=O)Nc1ccc(-c3cn[nH]c3)cc1OCCN(C)C)C2 | 261
89 | COc1cccc2c1CNC(C(=O)Nc1ccc(-c3cn[nH]c3)cc1OCCN(C)C)C2 (configuration not stated) | 334
90 | CCOc1ccc2c(c1)CC(C(=O)Nc1ccc(-c3cn[nH]c3)cc1OCCN(C)C)NC2 (configuration not stated) | 850
91 | COc1ccc2c(c1)C[C@H](C(=O)Nc1ccc(-c3cn[nH]c3)cc1)NC2 | 134
92 | NC(Cc1cccc(Cl)c1)C(=O)Nc1ccc(-c2cn[nH]c2)cc1 (configuration not stated) | 2
